Values of other authors, collected in PMC4369175 (Journal of photochemistry and photobiology. B, Biology, 2015).
Like-named read-outs stand apart in the source and are kept apart here.

Tests used:
[1] = standard value

Row | ΦΔ singlet oxygen quantum yield of the reference standard | Φf of fluorescence standard ([1]; in methanol) | Compound | Φf of fluorescence standard ([1]; in ethanol)
1 | – | – | CC/N=c1\cc2oc3cc(NCC)c(C)cc3c(-c3ccccc3C(=O)OCC)c-2cc1C [Rhodamine 6G] | 0.95
2 | 0.52 | 0.03 | CN(C)c1ccc2nc3ccc(=[N+](C)C)cc-3sc2c1 [methylene blue] | –
